Patent US10131666B2, “Heterocyclic morphinan derivatives and use thereof” (Purdue Pharma L.P., priority 2014, dated 2018)

Key:
μ-opioid receptor = biological target: T1, μ-opioid receptor (Homo sapiens, UniProt P35372); assay: μ-opioid receptor [35S]GTPγS functional assay; type: biochemical; conditions: for Emax: maximal effect relative to the effect elicited by DAMGO, HEK-293 cells
T1 construct: host or cells: HEK-293; b235 lists HEK-293, CHO or U-2 OS)
Description: [^35S]GTPγS functional assays were conducted using freshly thawed μ-receptor membranes prepared in-house from a cell line expressing recombinant t opioid receptor in a HEK-293, CHO or U-2 OS cell background, or purchased from a commercial source (Perkin Elmer, Shelton, Conn.; or DiscovRx, Fremont, Calif.). Assay reactions were prepared by sequentially adding the following reagents to binding buffer (100 mM NaCl, 10 mM MgCl2, 20 mM HEPES, pH 7.4) on ice (final concentrations indicated): membrane protein (0.026 mg/mL), saponin ([…]), GDP ([…]) and [^35S]GTPγS (0.20 nM; Perkin Elmer, Shelton, Conn.). The prepared membrane solution (190 μl/well) was transferred to 96-shallow well polypropylene plates containing 10 al of 20× concentrated stock solutions of the agonist [D-Ala^2, N-methyl-Phe^4 Gly-ol^5]-enkephalin (DAMGO) prepared in dimethyl sulfoxide (DMSO). Plates were incubated for 30 min at about 25° C. with shaking. Reactions were terminated by rapid filtration onto 96-well Unifilter GF/B filter plates (Perkin Elmer, Shelton, Conn.) using a 96-well tissue harvester (Perkin Elmer, Shelton, Conn.) followed by three filtration washes with 200 μl of ice-cold wash buffer (10 mM NaH2PO4, 10 mM Na2HPO4, pH 7.4). Filter plates were subsequently dried at 50° C. for 2-3 hours. BetaScint scintillation cocktail (Perkin Elmer, Shelton, Conn.) was added (50 μl/well) and plates were counted using a Packard Top-Count for 1 min/well. Data were analyzed using the sigmoidal dose-response curve fitting functions in GraphPad PRISM v. 3.0, or an in-house function for non-linear, sigmoidal dose-response curve-fitting.
μGTP EC50 is the concentration of a compound providing 50% of the maximal response for the compound at a μ-opioid receptor.
μ GTP Emax (%) is the maximal effect elicited by a compound relative to the effect elicited by DAMGO, a standard agonist. Generally, the μ GTP Emax (%) value measures the efficacy of a compound to treat or prevent pain or other Conditions.
(§1) In TABLE 2, activity response of certain Compounds of the Invention to the μ- and κ-opioid receptors was determined as described above for functional assays using HEK-293 cells.

κ-opioid receptor [1] = biological target: T2, κ-opioid receptor (Homo sapiens, UniProt P41145); assay: κ-opioid receptor radioligand dose displacement binding assay ([3H]-U69,593); design: expressed in transfected cells; host or cells: HEK-293 (in-house membrane prep)
T2 sequence (P41145 whole entry): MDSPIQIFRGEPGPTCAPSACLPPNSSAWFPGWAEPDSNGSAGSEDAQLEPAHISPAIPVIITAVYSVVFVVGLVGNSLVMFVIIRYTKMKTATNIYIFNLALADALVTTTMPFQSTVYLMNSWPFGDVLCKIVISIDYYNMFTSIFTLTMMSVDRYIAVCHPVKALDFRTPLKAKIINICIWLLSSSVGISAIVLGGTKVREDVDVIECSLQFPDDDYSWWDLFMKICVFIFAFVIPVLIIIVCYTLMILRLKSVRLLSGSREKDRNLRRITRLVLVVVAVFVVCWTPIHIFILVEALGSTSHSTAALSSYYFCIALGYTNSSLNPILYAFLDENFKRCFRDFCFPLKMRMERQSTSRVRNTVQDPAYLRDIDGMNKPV
Description: Membranes from HEK-293 cells, CHO or U-2 OS cells expressing the recombinant human kappa opioid receptor (K) were prepared by lysing cells in ice cold hypotonic buffer (2.5 mM MgCl2, 50 mM HEPES, pH 7.4) (10 mL/10 cm dish) followed by homogenization with a tissue grinder/Teflon pestle. Membranes were collected by centrifugation at 30,000×g for 15 min at 4° C. and pellets were resuspended in hypotonic buffer to a final concentration of 1-3 mg/mL. Protein concentrations were determined using the BioRad protein assay reagent with bovine serum albumen as standard. Aliquots of κ receptor membranes were stored at −80° C.
Radioligand dose displacement assays used 0.4 nM [^3H]-U69,593 (GE Healthcare, Piscataway, N.J.; 40 Ci/mmole) with 15 μg membrane protein (recombinant K opioid receptor expressed in HEK 293 cells; in-house prep) in a final volume of 200 μl binding buffer (5% DMSO, 50 mM Trizma base, pH 7.4). Non-specific binding was determined in the presence of 10 μM unlabeled naloxone or U69,593. All reactions were performed in 96-well polypropylene plates for 1 hour at a temperature of about 25° C. Binding reactions were terminated by rapid filtration onto 96-well Unifilter GF/C filter plates (Perkin Elmer, Shelton, Conn.) presoaked in 0.5% polyethylenimine (Sigma). Harvesting was performed using a 96-well tissue harvester (Perkin Elmer, Shelton, Conn.) followed by five filtration washes with 200 μl ice-cold binding buffer. Filter plates were subsequently dried at 50° C. for 1-2 hours. Fifty μl/well scintillation cocktail (Perkin Elmer, Shelton, Conn.) was added and plates were counted in a Packard Top-Count for 1 min/well.
In TABLE 1, binding affinity of certain Compounds of the Invention to the κ-opioid receptors was determined as described above.

κ-opioid receptor [2] = biological target: T2, κ-opioid receptor; assay: κ-opioid receptor [35S]GTPγS functional assay; type: biochemical; design: expressed in transfected cells; host or cells: HEK-293 (in-house membranes); conditions: for Emax: maximal effect relative to the effect elicited by U69,593, HEK-293 cells
Description: Functional [^35S]GTPγS binding assays were conducted as follows. K opioid receptor membrane solution was prepared by sequentially adding final concentrations of 0.026 μg/μl κ membrane protein (in-house), 10 μg/mL saponin, 3 μM GDP and 0.20 nM [^35S]GTPγS to binding buffer (100 mM NaCl, 10 mM MgCl2, 20 mM HEPES, pH 7.4) on ice. The prepared membrane solution (190 μl/well) was transferred to 96-shallow well polypropylene plates containing 10 μl of 20× concentrated stock solutions of agonist prepared in DMSO. Plates were incubated for 30 min at a temperature of about 25° C. with shaking. Reactions were terminated by rapid filtration onto 96-well Unifilter GF/B filter plates (Perkin Elmer, Shelton, Conn.) using a 96-well tissue harvester (Packard) and followed by three filtration washes with 200 μl ice-cold binding buffer (10 mM NaH2PO4, 10 mM Na2HPO4, pH 7.4). Filter plates were subsequently dried at 50° C. for 2-3 hours. Fifty μl/well scintillation cocktail (Perkin Elmer, Shelton, Conn.) was added and plates were counted in a Packard Top-Count for 1 min/well.
κ GTP EC50 is the concentration of a compound providing 50% of the maximal response for the compound at a κ receptor.
κ GTP Emax (%) is the maximal effect elicited by a compound relative to the effect elicited by U69,593.
as §1

T1 sequence (P35372 whole entry, species assumed): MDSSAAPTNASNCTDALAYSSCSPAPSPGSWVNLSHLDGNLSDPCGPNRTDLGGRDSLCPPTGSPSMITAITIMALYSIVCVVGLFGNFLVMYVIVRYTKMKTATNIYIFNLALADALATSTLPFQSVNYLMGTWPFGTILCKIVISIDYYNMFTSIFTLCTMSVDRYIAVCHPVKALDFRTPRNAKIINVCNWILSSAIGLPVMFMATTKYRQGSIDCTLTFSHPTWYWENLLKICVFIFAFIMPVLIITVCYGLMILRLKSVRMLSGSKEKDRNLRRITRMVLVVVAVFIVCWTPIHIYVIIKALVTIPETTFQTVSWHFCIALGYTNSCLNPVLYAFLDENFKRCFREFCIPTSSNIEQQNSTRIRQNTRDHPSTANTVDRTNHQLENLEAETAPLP

## CN1CC[C@]23Cc4[nH]c(=O)c(C(=O)N5CCS(=O)(=O)CC5)cc4C[C@H]2[C@H]1Cc1ccc(O)cc13 [Compound 18, (6R,6aR,12aS)-9-(1,1-dioxidothiomorpholine-4-carbonyl)-2-hydroxy-15-methyl-6,6a,7,12-tetrahydro-5H-6,12a-(epiminoethano)naphtho[2,1-g]quinolin-10(11H)-one]
μ-opioid receptor
  EC50: 0.462 ± 0.0884 µM
  Emax: 33.2 ± 3.3%

## COc1ccc2c(c1)[C@]13CCN(C)[C@H](C2)[C@@H]1Cc1cc(C(=O)O)c(=O)[nH]c1C3 [Compound 8, (6R,6aR,12aS)-2-methoxy-15-methyl-10-oxo-6,6a,7,10,11,12-hexahydro-5H-6,12a-(epiminoethano)naphtho[2,1-g]quinoline-9-carboxylic acid]
μ-opioid receptor
  EC50: 13.3 ± 1.8 µM
  Emax: 40.7 ± 5.04%

## CN1CC[C@]23Cc4[nH]c(=O)c(C(=O)N5[C@@H]6CC[C@H]5C[C@@H](O)C6)cc4C[C@H]2[C@H]1Cc1ccc(O)cc13 [Compound 17, (6R,6aR,12aS)-2-hydroxy-9-((1R,3R,5S)-3-hydroxy-8-azabicyclo[3.2.1]octane-8-carbonyl)-15-methyl-6,6a,7,12-tetrahydro-5H-6,12a-(epiminoethano)naphtho[2,1-g]quinolin-10(11H)-one]
κ-opioid receptor [1]
  Ki: 0.0177 ± 0.0076 µM
κ-opioid receptor [2]
  EC50: 0.152 ± 0.0288 µM
  Emax: 9.74 ± 1.51%
μ-opioid receptor
  EC50: 0.24 ± 0.0368 µM
  Emax: 27.5 ± 2.53%

## CN1CC[C@]23Cc4[nH]c(=O)c(C(=O)NCc5ccccc5)cc4C[C@H]2[C@H]1Cc1ccc(O)cc13 [Compound 11, (6R,6aR,12aS)-N-benzyl-2-hydroxy-15-methyl-10-oxo-6,6a,7,10,11,12-hexahydro-5H-6,12a-(epiminoethano)naphtho[2,1-g]quinoline-9-carboxamide]
μ-opioid receptor
  EC50: 0.332 ± 0.0617 µM
  Emax: 32.3 ± 0.88%

## CN(C(=O)c1cc2c([nH]c1=O)C[C@]13CCN(C)[C@H](Cc4ccc(O)cc41)[C@@H]3C2)C1CCCCC1 [Compound 15, (6R,6aR,12aS)—N-cyclohexyl-2-hydroxy-N,15-dimethyl-10-oxo-6,6a,7,10,11,12-hexahydro-5H-6,12a-(epiminoethano)naphtho[2,1-g]quinoline-9-carboxamide]
μ-opioid receptor
  EC50: 0.289 ± 0.0348 µM
  Emax: 29.7 ± 3.28%

## CN1CC[C@]23Cc4[nH]c(=O)c(C(=O)N[C@@H]5c6ccccc6C[C@@H]5O)cc4C[C@H]2[C@H]1Cc1ccc(O)cc13 [Compound 13, (6R,6aR,12aS)-2-hydroxy-N-((1R,2S)-2-hydroxy-2,3-dihydro-1H-inden-1-yl)-15-methyl-10-oxo-6,6a,7,10,11,12-hexahydro-5H-6,12a-(epiminoethan)naphth[2-g]quinolinone-9-carboxamide]
μ-opioid receptor
  EC50: 0.484 ± 0.113 µM
  Emax: 34 ± 3.21%

## CN1CC[C@]23Cc4[nH]c(=O)c(C(=O)N[C@H]5c6ccccc6C[C@H]5O)cc4C[C@H]2[C@H]1Cc1ccc(O)cc13 [Compound 14, (6R,6aR,12aS)-2-hydroxy-N-((1S,2R)-2-hydroxy-2,3-dihydro-1H-inden-yl)-15-methyl-10-oxo-6,6a,7,10,11,12-hexahydro-5H-6,12a-(epiminoethano)naphtho[2,1-g]quinoline-9-carboxamide]
μ-opioid receptor
  EC50: 0.432 ± 0.135 µM
  Emax: 34 ± 2.31%

## COC(=O)c1cc2c([nH]c1=O)C[C@]13CCN[C@H](Cc4ccc(OC)cc41)[C@]3(O)C2 [Compound 4, Methyl (6R,6aS,12aR)-6a-hydroxy-2-methoxy-10-oxo-6,6a,7,10,11,12-hexahydro-5H-6,12a-(epiminoethano)naphtho[2,1-g]quinoline-9-carboxylate]
μ-opioid receptor
  EC50: > 20 µM
  Emax: 20 ± 2.08%

## CCn1c2c(cc(C(=O)N3Cc4ccccc4C3)c1=O)C[C@@]1(O)[C@H]3Cc4ccc(O)cc4[C@@]1(CCN3C)C2 [Compound 19, (6R,6aS,12aR)-11-ethyl-2,6a-dihydroxy-9-(isoindoline-2-carbonyl)-15-methyl-6,6a,7,12-tetrahydro-5H-6,12a-(epiminoethano)naphtho[2,1-g]quinolin-10(11H)-one]
μ-opioid receptor
  EC50: 0.288 ± 0.0496 µM
  Emax: 30.8 ± 2.31%

## NC(=O)c1cc2c([nH]c1=O)C[C@]13CCN[C@H](Cc4ccc(O)cc41)[C@]3(O)C2 [Compound 6]
μ-opioid receptor
  EC50: 2.9 ± 0.868 µM
  Emax: 23 ± 1%

## CN1CC[C@]23Cc4[nH]c(=O)c(C(=O)N5CCCC5)cc4C[C@H]2[C@H]1Cc1ccc(O)cc13 [Compound 12, (6R,6aR,12aS)-2-hydroxy-15-methyl-9-(pyrrolidine-1-carbonyl)-6,6a,7,12-tetrahydro-5H-6,12a-(epiminoethano)naphtho[2,1-g]quinolin-10(11H)-one]
κ-opioid receptor [1]
  Ki: 0.0144 ± 0.00281 µM
κ-opioid receptor [2]
  EC50: 0.0242 ± 0.0119 µM
  Emax: 9.5 ± 0.5%
μ-opioid receptor
  EC50: 0.145 ± 0.0279 µM
  Emax: 35.3 ± 1.67%

## COc1ccc2c(c1)[C@]13CCN(C(=O)OC(C)(C)C)[C@H](C2)[C@]1(O)Cc1cc(C(=O)O)c(=O)[nH]c1C3 [Compound 20, (6R,6aS,12aR)-15-(tert-butoxycarbonyl)-6a-hydroxy-2-methoxy-10-oxo-6,6a,7,10,11,12-hexahydro-5H-6,12a-(epiminoethano)naphtho[2,1-g]quinoline-9-carboxylic acid]
μ-opioid receptor
  EC50: > 20 µM
  Emax: 3%

## CN1CC[C@]23Cc4[nH]c(=O)c(C(=O)N5Cc6ccccc6C5)cc4C[C@H]2[C@H]1Cc1ccc(O)cc13 [Compound 16, (6R,6aR,12aS)-2-hydroxy-9-(isoindoline-2-carbonyl)-15-methyl-6,6a,7,12-tetrahydro-5H-6,12a-(epiminoethano)naphtho[2,1-g]quinolin-10(11H)-one]
κ-opioid receptor [1]
  Ki: 0.00141 ± 0.00052 µM
κ-opioid receptor [2]
  EC50: > 20 µM
  Emax: 0%
μ-opioid receptor
  EC50: 0.0402 ± 0.0115 µM
  Emax: 47 ± 2.65%

## COC(=O)c1cc2c([nH]c1=O)C[C@]13CCN(C(=O)OC(C)(C)C)[C@H](Cc4ccc(OC)cc41)[C@]3(O)C2 [Compound 3, 15-(tert-Butyl) 9-methyl (6R,6aS,12aR)-6a-hydroxy-2-methoxy-10-oxo-6,6a,7,10,11,12-hexahydro-5H-6,12a-(epiminoethano)naphtho[2,1-g]quinoline-9,15-dicarboxylate]
μ-opioid receptor
  EC50: > 20 µM
  Emax: 0%
